The target of one assay is human trypsin (Homo sapiens, UniProt P07477). Kind of assay: Measurement of trypsin inhibitory activity. It is filed as biochemical. The conditions noted are these: for Ki: human trypsin, Boc-Phe-Ser-Arg-AMC substrate, Dixon plot. Here is the method:
Measurement of Trypsin Inhibitory Activity
Using a 96 well plate (#3915, Costar), a test compound (25 μL) was mixed with 20 μM fluorescence enzyme substrate (Boc-Phe-Ser-Arg-AMC, 50 μL) mixed with 200 mM Tris-HCl buffer (pH 8.0), and human trypsin (Sigma, 25 μL) was added. Using a fluorescence plate reader fmax (Molecular Devices, Inc.), the reaction rate was measured from the time-course changes at excitation wavelength 355 nm and fluorescence wavelength 460 nm. The Ki value was calculated from the concentration of the test compound, reciprocal of reaction rate, and Km value of the enzyme substrate, and by using Dixon plot.

For assay [1], the target named is recombinant human enteropeptidase (Homo sapiens (Human), UniProt P98073). Kind of assay: Measurement of enteropeptidase inhibitory activity. Type of assay: biochemical. As to conditions: for Ki: recombinant human enteropeptidase, Gly-Asp-Asp-Asp-Asp-Lys-β-Naphtylamide substrate, Dixon plot. The protocol: Measurement of Enteropeptidase Inhibitory Activity
Using a 96 well plate (#3915, Costar), a test compound (25 μL), 400 mM Tris-HCl buffer (pH 8.0, 25 μL) and 0.5 mg/mL fluorescence enzyme substrate (Gly-Asp-Asp-Asp-Asp-Lys-β-Naphtylamide, 25 μL) were mixed, and recombinant human enteropeptidase (R&D Systems, Inc., 25 μL) was added. Using a fluorescence plate reader fmax (Molecular Devices, Inc.), the reaction rate was measured from the time-course changes at excitation wavelength 320 nm and fluorescence wavelength 405 nm. The Ki value was calculated from the concentration of the test compound, reciprocal of reaction rate, and Km value of the enzyme substrate, and by using Dixon plot.

The next assay has as its system KK-A^y/JCL mice. Kind of assay: Evaluation of antidiabetic action (Experimental Example 4). It is filed as in vivo. As to conditions: mixed in feed for one week, versus control group. The text has this: Evaluation of Antidiabetic Action KK-A^y/JCL mice (male, 5- to 7-week-old, CLEA Japan, Inc.) known to spontaneously develop obese type 2 diabetes were purchased and, after one week of preliminary rearing period, grouped (6 per group) with the body weight and non-fasting blood glucose levels as indices. The animals were individually housed in a polycarbonate cage and allowed to drink water freely from a watering bottle. […] CRF-1 alone was given to the control group. After one week of dosing period, the blood (6 μL) was drawn from the tail vein of the animals, and the blood glucose level was measured by ACCU-CHEK Aviva (Roche Diagnostics K.K.). A significant difference from the control group was detected by Dunnett's multiple comparison test or Student's t-test (significance level less than 5%).

SMILES strings stand for the structures. Counter-ions that a name gives are not always drawn.

The record followed here is patent US9346821B2, “Heterocyclic carboxylic acid ester derivative” (AJINOMOTO CO., INC., priority 2011, dated 2016).

Chain of recombinant human enteropeptidase (P98073 whole entry): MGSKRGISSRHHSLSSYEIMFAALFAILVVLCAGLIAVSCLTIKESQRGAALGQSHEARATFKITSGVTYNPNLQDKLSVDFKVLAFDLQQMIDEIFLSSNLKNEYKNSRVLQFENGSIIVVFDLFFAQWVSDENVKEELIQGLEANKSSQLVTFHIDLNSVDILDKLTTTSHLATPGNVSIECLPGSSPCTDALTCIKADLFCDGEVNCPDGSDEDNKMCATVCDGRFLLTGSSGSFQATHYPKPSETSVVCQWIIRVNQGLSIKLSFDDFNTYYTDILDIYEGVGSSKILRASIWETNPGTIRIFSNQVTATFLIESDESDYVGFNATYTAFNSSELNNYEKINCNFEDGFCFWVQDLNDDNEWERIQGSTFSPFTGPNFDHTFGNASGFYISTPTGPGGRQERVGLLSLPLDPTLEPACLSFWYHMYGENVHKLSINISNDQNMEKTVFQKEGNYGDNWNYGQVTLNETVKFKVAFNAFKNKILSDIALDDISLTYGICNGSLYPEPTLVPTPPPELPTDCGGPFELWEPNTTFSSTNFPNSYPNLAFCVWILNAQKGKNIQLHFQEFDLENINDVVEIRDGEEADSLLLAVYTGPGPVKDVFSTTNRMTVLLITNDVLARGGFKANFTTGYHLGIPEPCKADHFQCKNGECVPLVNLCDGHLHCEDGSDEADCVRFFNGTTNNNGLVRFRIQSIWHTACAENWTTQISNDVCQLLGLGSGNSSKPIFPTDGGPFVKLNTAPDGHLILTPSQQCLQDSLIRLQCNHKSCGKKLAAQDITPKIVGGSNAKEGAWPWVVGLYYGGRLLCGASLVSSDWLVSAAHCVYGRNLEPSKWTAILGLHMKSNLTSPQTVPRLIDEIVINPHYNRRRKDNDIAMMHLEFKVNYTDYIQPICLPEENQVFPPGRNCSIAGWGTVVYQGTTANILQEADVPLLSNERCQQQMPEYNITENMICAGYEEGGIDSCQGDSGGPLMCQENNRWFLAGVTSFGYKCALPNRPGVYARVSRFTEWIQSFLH

Consider `N=C(N)c1ccc(OC(=O)c2ccc(CN3CCC[C@@H]3C(=O)N[C@@H](CS(=O)(=O)O)C(=O)O)o2)cc1` [A-5], for which the Ki at human trypsin amounted to 240 pM; in assay [1], 820 pM.
The corresponding values for `N=C(N)c1ccc2cc(OC(=O)c3ccc(CN4CCC[C@@H]4C(=O)N[C@@H](CS(=O)(=O)O)C(=O)O)o3)ccc2c1` [A-6] are 80 pM and 670 pM.
For the molecule `N=C(N)c1ccc(OC(=O)c2ccc(CN3CCC[C@H]3C(=O)N[C@@H](CS(=O)(=O)O)C(=O)O)o2)cc1` [A-10], the Ki on human trypsin was 970 pM; in assay [1], 650 pM.
For the molecule `CC(C)[C@@H](C(=O)N[C@@H](CC(=O)O)C(=O)O)N(C)Cc1ccc(C(=O)Oc2ccc(C(=N)N)cc2)o1` [A-14, N—(N-{[5-(4-amidinophenoxycarbonyl)furan-2-yl]methyl}-N-methyl-L-valyl)-L-aspartic acid bis(trifluoroacetate)], the Ki on human trypsin was determined as 450 pM; in assay [1], 560 pM.
Turning to `CN(Cc1ccc(C(=O)Oc2ccc(C(=N)N)cc2)o1)C(=O)N[C@@H](CC(=O)O)C(=O)O` [A-20], the inhibition constant Ki was determined as 540 pM on human trypsin and 940 pM in assay [1].
The corresponding values for `CC(C)N(Cc1ccc(C(=O)Oc2ccc(C(=N)N)cc2)o1)C(=O)N[C@@H](CC(=O)O)C(=O)O` [A-21] are 840 pM and 380 pM.
The corresponding values for `N=C(N)c1ccc(OC(=O)c2ccc(CN3CCC[C@H]3C(=O)N[C@@H](CS(=O)(=O)O)C(=O)O)s2)c(F)c1` [B-10] are 250 pM and 240 pM.
On the same counts, the results for `C=CCN(CC(=O)O)C(=O)[C@@H]1CCCN1Cc1ccc(C(=O)Oc2ccc(C(=N)N)cc2F)s1` [B-11] are 640 pM and 780 pM.
On to `N=C(N)c1ccc(OC(=O)c2ccc(CN3CCC[C@@H]3C(=O)N[C@@H](CS(=O)(=O)O)C(=O)O)s2)cc1` [B-12], for which the Ki at human trypsin worked out at 1140 pM; in assay [1] it was 950 pM.
The corresponding values for `N=C(N)c1ccc(OC(=O)c2ccc(CN3CCC[C@@H]3C(=O)N[C@@H](CC(=O)O)C(=O)O)s2)c(F)c1` [B-13] are 290 pM and 430 pM.
The corresponding values for `N=C(N)c1ccc(OC(=O)c2ccc(CN3CCC[C@@H]3C(=O)N[C@@H](CS(=O)(=O)O)C(=O)O)s2)c(F)c1` [B-14] are 190 pM and 240 pM.
Consider `N=C(N)c1ccc(OC(=O)c2ccc(CN3CCC[C@@H]3C(=O)N[C@H](CC(=O)O)C(=O)O)s2)c(F)c1` [B-15], for which the Ki on human trypsin was 520 pM; in assay [1], 690 pM.
On the same counts, the results for `N=C(N)c1ccc(OC(=O)c2ccc(CN3CCCC[C@H]3C(=O)N[C@@H](CC(=O)O)C(=O)O)s2)c(F)c1` [B-18] are 920 pM and 440 pM.
As to `N=C(N)c1ccc(OC(=O)c2ccc(CN3CSC[C@H]3C(=O)N[C@@H](CC(=O)O)C(=O)O)s2)c(F)c1` [B-20], the Ki on human trypsin came to 210 pM; in assay [1] it was 150 pM.
For `C=CCN(CC(=O)O)C(=O)[C@@H]1CSCN1Cc1ccc(C(=O)Oc2ccc(C(=N)N)cc2F)s1` [B-21], the inhibition constant (Ki) at human trypsin was determined as 380 pM; in assay [1], 1000 pM.
On the same counts, the results for `CC(C)[C@@H](C(=O)N[C@@H](CC(=O)O)C(=O)O)N(C)Cc1ccc(C(=O)Oc2ccc(C(=N)N)cc2F)s1` [B-23] are 440 pM and 750 pM.
Consider `CC(C)[C@@H](C(=O)N[C@@H](CCC(=O)O)C(=O)O)N(C)Cc1ccc(C(=O)Oc2ccc(C(=N)N)cc2F)s1` [B-26], for which the Ki on human trypsin was 380 pM; in assay [1], 1000 pM.
For `CC(C)[C@H](C(=O)N[C@@H](CC(=O)O)C(=O)O)N(C)Cc1ccc(C(=O)Oc2ccc(C(=N)N)cc2F)s1` [B-27, N—(N-{[5-(4-amidino-2-fluorophenoxycarbonyl)thiophen-2-yl]methyl}-N-methyl-D-valyl)-L-aspartic acid bis(trifluoroacetate)], the inhibition constant (Ki) on human trypsin turned out to be 680 pM; in assay [1], 780 pM.
The corresponding values for `CC(C)C[C@@H](C(=O)N[C@@H](CCC(=O)O)C(=O)O)N(C)Cc1ccc(C(=O)Oc2ccc(C(=N)N)cc2F)s1` [B-32] are 700 pM and 900 pM.
As to `CC(C)C[C@@H](C(=O)N[C@@H](CC(=O)O)C(=O)O)N(C)Cc1ccc(C(=O)Oc2ccc(C(=N)N)cc2F)s1` [B-35], the results for the Ki (on human trypsin; in assay [1]) were 810 pM and 530 pM, respectively.
On to `CC(C)C[C@@H](C(=O)N[C@H](CCC(=O)O)C(=O)O)N(C)Cc1ccc(C(=O)Oc2ccc(C(=N)N)cc2F)s1` [B-36], for which the results for the Ki (on human trypsin; in assay [1]) were 890 pM and 610 pM, respectively.
On to `N=C(N)c1ccc(OC(=O)c2ccc(CNC3(C(=O)N[C@@H](CC(=O)O)C(=O)O)CC3)s2)c(F)c1` [B-37, N-(1-{[5-(4-amidino-2-fluorophenoxycarbonyl)thiophen-2-yl]methylamino}cyclopropanecarbonyl)-L-aspartic acid bis(trifluoroacetate)], for which the Ki on human trypsin was 1570 pM; in assay [1], 1270 pM.
On the same counts, the results for `N=C(N)c1ccc(OC(=O)c2ccc(Cn3cccc3C(=O)O)s2)c(F)c1` [B-42, N-{[5-(4-amidino-2-fluorophenoxycarbonyl)thiophen-2-yl]methyl}-1H-pyrrole-2-carboxylic acid trifluoroacetate] are 820 pM and 610 pM.
In the case of `N=C(N)c1ccc(OC(=O)c2cc3c(s2)CN(CC(=O)O)CC3)c(F)c1` [B-43, {2-[(4-amidino-2-fluorophenoxy)carbonyl]-4,5-dihydrothieno[2,3-c]pyridin-6(7H)-yl}acetic acid bis(trifluoroacetate)], the Ki on human trypsin is 560 pM; in assay [1], 690 pM.
On the same counts, the results for `C=CCN(C(=O)CN1CCc2cc(C(=O)Oc3ccc(C(=N)N)cc3F)sc2C1)[C@@H](CCC(=O)O)C(=O)O` [B-45, N-allyl-N-({2-[(4-amidino-2-fluorophenoxy)carbonyl]-4,5-dihydrothieno[2,3-c]pyridin-6(7H)-yl}acetyl)-L-glutamic acid bis(trifluoroacetate)] are 710 pM and 620 pM.
As to `CN(Cc1ccc(C(=O)Oc2ccc(C(=N)N)cc2F)s1)C(=O)N[C@@H](CC(=O)O)C(=O)O` [B-46], the Ki on human trypsin worked out at 870 pM; in assay [1], 380 pM.
In the case of `CC(C)N(Cc1ccc(C(=O)Oc2ccc(C(=N)N)cc2F)s1)C(=O)N[C@@H](CC(=O)O)C(=O)O` [B-47], the Ki on human trypsin came out at 690 pM; in assay [1], 330 pM.
Turning to `N=C(N)c1ccc(OC(=O)c2cc3c(s2)CN(C(=O)N[C@@H](CC(=O)O)C(=O)O)CC3)c(F)c1` [B-55, N-{[2-(4-amidino-2-fluorophenoxycarbonyl)-4,5,6,7-tetrahydrothieno[2,3-c]pyridin-6-yl]carbonyl}-L-aspartic acid trifluoroacetate], the results for the Ki (at human trypsin; in assay [1]) were 240 pM and 200 pM, respectively.
As to `C=CCN(CC(=O)N[C@@H](CC(=O)O)C(=O)O)C(=O)CCc1ccc(C(=O)Oc2ccc(C(=N)N)cc2F)s1` [B-56, N—[N-allyl-N-(3-{5-[(4-amidino-2-fluorophenoxy)carbonyl]thiophen-2-yl}propanoyl)glycyl]-L-aspartic acid trifluoroacetate], the figures for the Ki (on human trypsin; in assay [1]) were 430 pM and 770 pM, respectively.
On the same counts, the results for `CN(Cc1ccc(C(=O)Oc2ccc(C(=N)N)cc2F)s1)[C@H](Cc1ccccc1)C(=O)N[C@H](CC(=O)O)C(=O)O` [B-59, N—(N-{5-[(4-amidino-2-fluorophenoxy)carbonyl]thiophen-2-yl}methyl-N-methyl-D-phenylalanyl)-D-aspartic acid bis(trifluoroacetate)] are 3310 pM and 980 pM.
The corresponding values for `N=C(N)c1ccc(OC(=O)c2ccc(CN3CCC[C@@H]3C(=O)N(CCC(=O)O)CC(=O)O)s2)c(F)c1` [B-60, N-{5-[(4-amidino-2-fluorophenoxy)carbonyl]thiophen-2-yl}methyl-D-proline N-(2-carboxyethyl)-N-carboxymethylamide bis(trifluoroacetate)] are 420 pM and 530 pM.
In the case of `N=C(N)c1ccc(OC(=O)c2ccc(CCC(=O)N[C@@H](CC(=O)O)C(=O)O)s2)c(F)c1.O=C(O)C(F)(F)F` [reference compound A, N-{3-[5-(4-amidino-2-fluorophenoxycarbonyl)thiophen-2-yl]propanoyl}-L-aspartic acid trifluoroacetate, reference compound], the “trypsin inhibitory activity (in words)” value on human trypsin (summary statement) is reported as “superior”. The Ki in assay [1] stood at 1360 pM. Moreover, the “enteropeptidase inhibitory activity (in words)” value in assay [1] (summary statement) was “superior”. In the assay with KK-A^y/JCL mice, the hypoglycemic action result is recorded as “significant hypoglycemic action”.
